What was measured:
Format in all cases: cell-based
[1] = test system: normal human nasal epithelium; assay: Bioelectric studies (short circuit current, Isc) of normal human nasal epithelium in Ussing chambers
Method: (§1) Freshly excised human nasal epithelium from normal or cystic fibrosis subjects was grown in primary culture in F-12, hormone-supplemented medium in accordance with known procedures. See R. Wu et al., Am. Rev. Respir. Dis. 132, 311-320 (1985). For [Ca^2+ ]i measurements, cultures were grown on non-fluorescent vitrogen substrates on glass coverslips. Cultures for electrophysiologic studies were grown to confluence on permeable collagen matrix supports (CMS), allowing addition of agonists to the basolateral or apical surface of the epithelial sheet.
(§2) Confluent monolayers of primary human nasal epithelium were mounted in modified Ussing chambers in accordance with known procedures. See, e.g., R. Boucher et al., J. Physiol. (Lond.) 405, 77-103 (1988); M. Knowles et al., Science 221, 1067-1070 (1983). The studies described below were performed under short circuit current conditions at 37° C., and in some studies, amiloride was added to the apical bath (10^-4 M) to block transepithelial sodium transport. Changes in transepithelial potential difference (Vt), resistance (Rt) and short circuit current (Isc) were measured in response to addition of various nucleotides. Each cultured preparation was exposed to only one concentration of an agonist on either the basolateral or apical surface to avoid the tachyphylaxis observed in preliminary cumulative dose response studies. To construct concentration-effect relationships of responses to nucleotides, it was assumed that the same maximum response to an agonist could be induced from each tissue culture preparation from the same individual.
The effects of extracellular ATP on normal human nasal epithelium were investigated employing bioelectric measurements of ion transport activity when the nucleotide was applied to either the apical or basolateral membrane. […] In general, the change in Isc induced by application of ATP to the apical or the basolateral side returned to baseline or below within 5 minutes after addition of agonist. […] Apical pretreatment with amiloride (10^-4 M) removes active Na^+ absorption as a component of the Isc so that the residual Isc reflects a Cl^- secretory current (R. Boucher et al., J. Clin. Invest. 78, 1245-1252 (1986); N. Willumsen et al., Am. J. Physiol. 256, C1033-C1044 (1989)).
A concentration-effect relationship was found when ATP was applied to normal human nasal epithelium under basal conditions (data not shown). Comparisons were made between responses of tissues from different donors based on the peak change in Isc following ATP application. The curve describes the mean peak change in Isc in response to log increasing concentrations of ATP applied to the apical or basolateral surface.
Concentration-effect relationships were also found for ATP applied to the apical or basolateral membrane of amiloride-pretreated tissues (data not shown). Again, the nucleotide's effect on ion transport was examined as the mean peak change in Isc after ATP application.
(§3) The purinergic receptor subtype(s) linked to regulation of ion transport of human nasal epithelium were characterized by obtaining concentration-effect relationships for a variety of purine and pyrimidine agonists in preparations derived from normal and CF patients. We characterized receptor subtype(s) on the […] surface by measuring nucleotide effect on basal Na^+ transport rates. Because therapies designed to induce Cl^- secretion might best be delivered by the aerosol route, receptor subtype characterization on the apical barrier was performed in the presence of amiloride. The effect of extracellular nucleotides on ion transport is reported as the percent change in Isc from control values when applied to the basolateral or apical surface of the culture. Basal pre-agonist currents were similar for tissues in each concentration group.

[2] = test system: normal human nasal epithelial cells; assay: Intracellular calcium [Ca^2+ ]i in single normal human nasal epithelial cells (Fura-2)
Method: as §1
Primary human nasal epithelial cells grown to confluence on vitrogen coated coverslips were loaded with a final concentration of 3 μM Fura-2/AM at 37° C. for 30 minutes. The cells were then washed in NaCl Ringer and mounted in a chamber for measurements of fluorescence. To reduce the rate of leakage of Fura-2 from the cell into the extracellular space and avoid time-dependent compartmentalization of the probe, all measurements of [Ca^2+ ]i were performed at 25° C. At this temperature,no vesicular bright spots indicative of compartmentalization of the probe were observed.
Measurements of [Ca^2+ ]i in single human nasal epithelial cells were obtained with a modular microspectrofluorimeter (SPEX Industries, Inc., Edison, N.J.) attached to a Zeiss Axiovert IM 35 microscope. The system was equipped with a xenon lamp, beam splitter, two monochromators and a rotating chopper mirror that permitted excitation of cell fluorescence at alternating wavelengths of 340 and 380 nm (emission ≥450 nm). The fluorescent signal from a single cell was measured with a photometer equipped with a pinhole (spot diameter of 3-5 μm) that excluded signals from adjacent cells.
After agonist was added, the fluorescent signal was quenched by a NaCl ringer solution containing 1.5×10^-4 M digitonin and 10^-3 M MnCl2. The remaining signal at each excitation wavelength, equivalent to the background fluorescence in non loaded cells, was subtracted from data from Fura-2/AM loaded cells before the ratio (340 nm/380 nm) was taken. The 340 nm/380 nm ratio was converted to an actual [Ca^2+ ]i measurement by using the external calibration standards and the formula derived by G. Grynkiewicz et al., J. Biol. Chem. 260, 3440-3450 (1985), used with dual wavelength measurements: [Ca^2+ ]i =K [(Rx --Ro)/(Rs --Rx)], with Ro and Rs representing the ratios at 0 Ca^2+ and saturating Ca^2+, respectively. Rx represents the experimental ratio.
To investigate whether changes in [Ca^2+ ]i might be related to regulation of ion transport, receptor characterization was performed by measuring changes in [Ca^2+ ]i in response to a number of nucleotide drugs. Concentration-effect curves for agonists active at P2x, P2y subtype or UTP sensitive receptors and other purine or pyrimidine receptor agonists were generated, measuring mean change in [Ca^2+ ]i in response to agonist concentration. Data are shown in FIG. 3, which gives log concentration-effect relationships of purinergic and pyrimidinergic compounds on [Ca^2+ ]i (mean change in [Ca^2+ ]i over basal levels).

[3] = test system: CF human nasal epithelium; assay: Bioelectric studies (Isc) of cystic fibrosis (CF) human nasal epithelium; details: for Isc response tracing: 10^-4 M, amiloride-pretreated (10^-4 M)
Method: as §1, §2, §3
Availability of Cystic Fibrosis (CF) tissues is limited, and our investigation of effects of nucleotides was restricted to examining regulation of Cl^- secretion rates and [Ca^2+ ]i levels by ATP and UTP.

[4] = Homo sapiens, read-out: maximum mean % change in Isc

Nc1ncnc2c1ncn2[C@@H]1O[C@H](COP(=O)(O)OP(=O)(O)OP(=O)(O)O)[C@@H](O)[C@H]1O [ATP, adenosine triphosphate]
increase in Isc at 10^-3 M ([1]; 10^-3 M, basolateral membrane (not seen with apical application), basal conditions): A large increase in Isc
change in Isc on application to either surface ([1]; ATP, apical or basolateral surface, no amiloride): rapidly stimulated an increase in Isc
time for change in Isc to return to baseline or below ([1]; ATP, apical or basolateral, basal conditions): ≤ 5 min
Emax [1, 4]: 51 ± 8%
Cl^- secretory response ([1]; amiloride-pretreated tissues): A typical Cl^- secretory response
change in ion transport, amiloride-pretreated versus basal state ([1]; amiloride-pretreated tissues): routinely smaller than that observed in tissues in the basal state
character of log concentration-effect curves ([1]; amiloride-treated tissues, apical or basolateral): sigmoidal in character
duration of prolonged increase in Isc above baseline ([1]; apical surface following amiloride pretreatment, most tissues): > 10 min
rank order of potency for Cl^- secretion ([1]; apical surface, amiloride-pretreated, FIG. 2): ATP≥UTP>ATPγS>ADP>2MeSATP>ADPβS
effectiveness, apical versus basolateral ([1]; basal conditions, 10^-7 to 10^-4 M): approximately equal
time for ATP induced increase in Isc to return to baseline ([1]; basolateral addition, amiloride-pretreated): ≤ 5 min
character of concentration-effect curve including 10^-3 M ([1]; basolateral surface, 10^-3 M drug considered): biphasic in character
character of log concentration-effect curve ([1]; basolateral surface, 10^-7 to 10^-4 M): sigmoidal character
rank order of potency for increase in Isc ([1]; basolateral surface, FIG. 1): 2MeSATP>UTP≥ATP>ATPγS>ADP>ADPβS
oscillations in Isc ([1]; following ATP): frequently observed
[Ca^2+ ]i response in Ca^2+ -free medium ([2]; Ca^2+ -free medium): initial sharp increase in [Ca^2+ ]i
time for [Ca^2+ ]i to return to baseline ([2]; Ca^2+ -free medium): two
effectiveness for raising [Ca^2+ ]i ([2]; concentration-effect curves, FIG. 3): most effective agonists
[Ca^2+ ]i response ([2]; extracellular application, Ca^2+ -containing solution): immediate increase in [Ca^2+ ]i levels
plateau phase on return to Ca^2+ -containing solution ([2]; return of cells to Ca^2+ -containing solution): restoration of the plateau phase
Isc response tracing ([3]; apical surface, FIG. 4A): Cl^- secretion in response to ATP
Isc response tracing ([3]; apical surface, FIG. 4B): opposite polarity
Emax [3, 4]: 14 ± 3%
change in Isc over basal levels ([3]; apical surface, amiloride-pretreated CF tissues): Most tissues exhibited an increase in Isc over basal levels
pattern of Isc response ([3]; apical, amiloride-pretreated CF tissues): two distinct patterns of response
CF tissues responding with a change to opposite polarity of Isc ([3]; apical, amiloride-pretreated CF tissues, FIG. 4B): approximately 30%
Cl^- secretion (amiloride-resistant Isc) ([3]; basolateral addition, CF tissues): Only small changes in Cl^- secretion

— patent US5292498A, “Method of treating lung disease with uridine triphosphates” (The University of North Carolina At Chapel Hill, priority 1991, dated 1994)
